Test results published in patent publication US9789130B2, “Method for blocking HIV entry into dendritic cells by inhibiting sialoadhesin-sialyllactose binding interactions with gangliosides” (LABORATORIOS DEL DR. ESTEVE, S.A., priority 2011, dated 2017).
Blank lines part the entries; values can stand above or below the molecule they belong to.

Columns and labels:
Siglec-1 [1] = target: T1, Siglec-1 (Homo sapiens, UniProt Q9BZZ2); experiment: VLP capture by Siglec-1 transfected Raji B cells; assay type: cell-based; conditions: mAbs 10 μg/ml; sialyllactose at indicated concentrations, 30 min prior to VLP pulse
Description: Raji cells (2×10^6) were transfected with vector backbone pCMV6-Entry (Origene) comprising the coding region of Siglec-1, Siglec-5, or Siglec-7 using Amaxa nucleofector as recommended by the manufacturer. At 36 h posttransfection, cells were assessed for VLP capture and HIV-1 trans-infection (at a ratio 2:1) as described above. When indicated, cells were pre-incubated with decreasing concentrations of 3′-Sialyllactose (Carbosynth) or Lactose (Sigma-Aldrich) 30 min prior to VLP pulse. In experiments with envelope-deficient viruses, 5×10^5 cells were pulsed with 100 ng of p24^Gag estimated by ELISA for 4 h at 37° C. and assessed for capture and trans-infection (at a ratio 2:1) as aforementioned. HEK-293T cells were transfected using Fugene HD (Promega) and assessed 24 h posttransfection as described for Raji cells. Trans-infection of HEK-293T was tested in a different luminometer (Luminoskan Ascent, Thermo Labsystems), and collected data were normalized to 100%. Transfection efficiency in both cell types was assessed staining cells with anti-Siglec-1-PE 7-239 mAb, anti-Siglec-7-PE 5-386 mAb (AbD Serotec), and anti-Siglec-5/14-PE 1A5 mAb (Biolegend) and evaluated by FACS. Stable Raji DC-SIGN cells were labeled with anti-DC-SIGN-PE DCN46 mAb (BD Pharmigen).

Siglec-1 [2] = target: T1, Siglec-1; experiment: VLP capture by LPS mDCs pre-incubated with α-Siglec-1 mAbs; assay type: cell-based; design: Siglec-1 expressed in LPS mDCs capture distinct ganglioside containing vesicles; endogenous in cells; host or cells: LPS-matured monocyte-derived dendritic cells (LPS mDCs) from donor PBMCs; conditions: 2 μg/ml mAb 7D2 treated with at least 100-fold molar excess of human recombinant protein
Description: FIG. 11. Siglec-1 expressed in LPS mDCs capture distinct ganglioside containing vesicles, such as HIV-1 viral-like particles, liposomes, and exosomes. Capture of VLPHIV-Gag-eGFP by LPS mDCs that had been pre-incubated with decreasing concentrations of α-Siglec-1 mAb 7D2 before VLP exposure for 30 min at 37° C.
FIG. 12. Capture of VLPHIV-Gag-eGFP by LPS mDCs that had been pre-incubated with or without 2 μg/ml of α-Siglec-1 mAb 7D2 previously treated or not with at least a 100-fold molar excess of the indicated human recombinant proteins. Of note, Siglec-14 shares 100% of amino acid homology with Siglec-5 in the V-set domain.
FIG. 13. Blocking effect of α-Siglec-1 mAb 7-239. (A) Capture of VLPHIV-Gag-eGFP by LPS mDCs that had been pre-incubated with decreasing concentrations of α-Siglec-1 mAb 7-239 before VLP exposure for 30 min at 37° C. […] (B) Capture of VLPHIV-Gag-eGFP by LPS mDCs that had been pre-incubated with 10 μg/ml of the indicated mAbs before VLP exposure for 3 h at 37° C.

mDCs = experiment: Lactose and GM3 polar head group treatment of mDCs before LUV/VLP capture; assay type: cell-based, human; conditions: mDCs pre-incubated with 5 to 10 mM compound, relative to mock-treated mDCs
Description: mDCs were preincubated with or without 5 or 10 mM of lactose (Sigma-Aldrich Co., Saint Louis, Mo., US) and soluble GM3 carbohydrate head group (Carbosynth Ltd., Compton, Berkshire, GB) for 30 min at RT. Cells were then pulsed with 50 μM of GM3-containing LUVHIv-tRed and 75 ng of sucrose-pelleted VLPHIv-Gag-eGFP Gag for 2 h at 37° C., at a final concentration of 5 or 10 mM for the compounds tested. Cells were analyzed by FACS as described previously.

T1 sequence (Q9BZZ2 20-1709): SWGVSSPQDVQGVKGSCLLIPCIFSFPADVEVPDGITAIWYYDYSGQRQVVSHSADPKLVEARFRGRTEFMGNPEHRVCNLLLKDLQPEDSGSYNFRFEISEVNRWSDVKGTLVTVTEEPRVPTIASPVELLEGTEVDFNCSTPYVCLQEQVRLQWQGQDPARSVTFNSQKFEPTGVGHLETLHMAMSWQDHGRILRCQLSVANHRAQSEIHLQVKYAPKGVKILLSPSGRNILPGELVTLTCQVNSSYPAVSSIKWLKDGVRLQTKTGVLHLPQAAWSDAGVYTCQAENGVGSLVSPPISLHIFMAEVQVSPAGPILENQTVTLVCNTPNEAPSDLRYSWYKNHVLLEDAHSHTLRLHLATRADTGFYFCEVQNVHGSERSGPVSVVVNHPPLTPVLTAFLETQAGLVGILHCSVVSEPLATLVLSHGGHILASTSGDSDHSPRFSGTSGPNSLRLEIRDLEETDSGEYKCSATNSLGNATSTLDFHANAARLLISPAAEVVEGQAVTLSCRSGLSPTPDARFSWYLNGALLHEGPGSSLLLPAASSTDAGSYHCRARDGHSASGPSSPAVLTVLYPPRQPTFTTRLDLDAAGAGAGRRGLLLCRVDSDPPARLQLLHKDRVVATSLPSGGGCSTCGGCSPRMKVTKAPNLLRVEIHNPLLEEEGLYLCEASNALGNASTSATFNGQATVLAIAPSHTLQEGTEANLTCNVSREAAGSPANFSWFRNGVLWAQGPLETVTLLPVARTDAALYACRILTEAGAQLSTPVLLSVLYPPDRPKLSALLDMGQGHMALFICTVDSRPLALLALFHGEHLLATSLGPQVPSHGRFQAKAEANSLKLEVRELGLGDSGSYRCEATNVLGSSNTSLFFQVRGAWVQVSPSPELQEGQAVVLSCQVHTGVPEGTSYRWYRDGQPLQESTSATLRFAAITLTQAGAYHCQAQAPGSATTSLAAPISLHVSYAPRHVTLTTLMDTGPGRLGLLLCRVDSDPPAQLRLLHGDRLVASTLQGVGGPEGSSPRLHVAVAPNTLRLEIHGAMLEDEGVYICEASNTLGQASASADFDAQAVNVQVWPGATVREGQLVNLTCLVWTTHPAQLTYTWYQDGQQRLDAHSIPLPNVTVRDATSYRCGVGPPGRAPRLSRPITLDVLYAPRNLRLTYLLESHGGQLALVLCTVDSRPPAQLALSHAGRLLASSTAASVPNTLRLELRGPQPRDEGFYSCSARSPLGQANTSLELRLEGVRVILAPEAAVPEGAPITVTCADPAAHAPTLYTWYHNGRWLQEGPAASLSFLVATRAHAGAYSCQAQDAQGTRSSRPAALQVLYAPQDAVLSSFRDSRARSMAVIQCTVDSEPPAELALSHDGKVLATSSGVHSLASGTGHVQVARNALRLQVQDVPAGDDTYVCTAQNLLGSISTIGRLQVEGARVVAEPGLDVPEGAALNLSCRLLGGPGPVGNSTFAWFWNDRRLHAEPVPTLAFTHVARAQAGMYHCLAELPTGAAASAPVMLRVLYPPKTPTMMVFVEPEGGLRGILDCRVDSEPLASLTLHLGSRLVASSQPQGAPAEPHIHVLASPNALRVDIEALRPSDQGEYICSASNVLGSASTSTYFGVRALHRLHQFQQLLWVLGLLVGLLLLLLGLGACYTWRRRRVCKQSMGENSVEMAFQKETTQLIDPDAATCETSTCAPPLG

- VLPHIV-Gag-eGFP capture by Siglec-1 transfected Raji cells after pre-incubation with inhibitor (Siglec-1 [1]): blocked VLP capture
Molecule: CC(=O)N[C@H]1[C@H]([C@H](O)[C@H](O)CO)O[C@@](O[C@H]2[C@@H](O)[C@@H](CO)O[C@@H](O[C@H]3[C@H](O)[C@@H](O)C(O)O[C@@H]3CO)[C@@H]2O)(C(=O)O)C[C@@H]1O (stereo partly drawn) [sialyllactose, 3′-Sialyllactose]

- VLP capture by LPS mDCs with mAb 7D2 pre-incubated with purified protein (Siglec-1 [2]): completely restored VLP capture
Molecule: purified Siglec-1: human recombinant Siglec-1 protein used to pre-treat mAb 7D2

Molecule: CC(=O)N[C@H]1[C@H]([C@H](O)[C@H](O)CO)O[C@@](O[C@H]2[C@@H](O)[C@@H](CO)O[C@@H](O[C@H]3[C@H](O)[C@@H](O)C(O)O[C@@H]3CO)[C@@H]2O)(C(=O)O)C[C@@H]1O (stereo partly drawn) [soluble GM3]
- capture of GM3-containing LUVHIV-tRed by mDCs in the presence of soluble carbohydrate (mDCs): completely blocked
- capture of VLPHIV-Gag-eGFP by mDCs in the presence of soluble carbohydrate (mDCs): completely blocked
- capture of GM3-containing LUVHIV-tRed by mDCs in the presence of soluble carbohydrate (mDCs; listed as GM3 polar head group): captured less particles
- capture of VLPHIV-Gag-eGFP by mDCs in the presence of soluble carbohydrate (mDCs; listed as GM3 polar head group): captured less particles
